Results: patent publication US8153773B2, “Synthesis and use of anti-reverse phosphorothioate analogs of the messenger RNA cap” (Board of Supervisors of Louisiana State University and …, priority 2007, dated 2012)
“Also recorded” adds a separate entry of the source.

Columns and labels:
murine eIF4E (28-217) = target: T1, murine eIF4E (28-217) (Mus musculus, UniProt P63073); assay: Binding affinities for eIF4E by fluorescence quenching; set-up: Cap - eIF4E KAS: unit not given here; conditions: for ΔG°: binding free energy calculated from KAS; for ΔG° / KAS: murine eIF4E (28-217); for Cap - eIF4E KAS / KAS: equilibrium association constant; for Cap - eIF4E KAS: mouse eIF4E (amino acids 28-217), 20° C.; for KAS: fluorescence quenching; for affinity for eIF4E (KAS) relative to m2^7,2′-OGpppG: fold higher than the parent ARCA; for affinity for eIF4E (KAS) of D1 relative to D2 diastereomer: fold higher than the D2 member
T1 construct: (28-217) to phosphorothioate cap analogs, as determined
Method: Binding affinities of S analogs for murine eIF4E were determined by fluorescence quenching. Fluorescence titration measurements were carried out on an LS-50B spectrofluorometer (Perkin Elmer Co.) in 50 mM HEPES/KOH (pH 7.2), 100 mM KCl, 0.5 mM EDTA, 1 mM DTT at 20.0±0.2° C. Aliquots of 1 μl increasing concentration of cap analogue solutions were added to 1.4 ml of […] solutions. Fluorescence intensities (excitation at 280 nm with 2.5 nm bandwidth and detection at 337 nm with 4 nm bandwidth and 290 nm cut-off filter) were corrected taking into account sample dilution and the inner filter effect. Equilibrium association constants (KAS) were determined by fitting the theoretical dependence of the fluorescence intensity on the total concentration of cap analogue to the experimental data points according to equation described previously (See A. Niedzwiecka et al., “Biophysical studies of eIF4E cap-binding protein: recognition of mRNA 5′ cap structure and synthetic fragments of eIF4G and 4E-BP1 proteins,” J. Mol. Biol., vol. 319, pp. 615-635 (2002)). The concentration of protein was fitted as a free parameter of equilibrium equation showing amount of “active” protein. The final KAS was calculated as a weighted average of three to ten independent titrations, with the weights taken as the reciprocals of the numerical standard deviations squared. Numerical nonlinear least-squares regression analysis was performed using ORGIN 6.0 (Microcal Software Inc., USA). The Gibbs free energy of binding was calculated from the KAS value according to the standard equation ΔG°=−RTlnKAS.

hDcp2 = hDcp2 (Homo sapiens, UniProt Q8IU60); assay: In vitro RNA decapping assay with recombinant hDcp2; type: biochemical; conditions: for hydrolysis of capped oligonucleotide by hDcp2: capped 32P-labeled short RNA, recombinant hDcp2, anion exchange HPLC (FIG. 6); for Dcp2 susceptibility: radioactivity in pGp* as a percentage of total cap radioactivity, capped oligonucleotides digested with hDcp2
Method: Dcp2 activity was measured with capped 48-nt oligonucleotides as substrates, a truncated form of luciferase mRNA (48 nucleotides). GST-hDcp2 was expressed in Escherichia coli and purified as described by Z. Wang et al., “The hDcp2 protein is a mammalian mRNA decapping enzyme,” Proc. Natl. Acad. Sci. U.S.A., vol. 99, pp. 12663-12668 (2002). Capped oligonucleotides were first subjected to digestion with GST-hDcp2 at 37° C. for 2 h in decapping buffer (10 mM Tris-HCl, pH 7.5, 100 mM potassium acetate, 2 mM magnesium acetate, 0.5 mM MnCl2, 2 mM dithiothreitol, and 0.1 mM spermine). See C. Piccirillo et al., “Functional characterization of the mammalian mRNA decapping enzyme hDcp2,” RNA, vol. 9, pp. 1138-1147 (2003). The reaction mixture was then extracted once with an equal volume of phenol and twice with chloroform, and RNA was precipitated with ethanol. Products of the decapping reaction were further digested with a cocktail of ribonucleases (RiboShredder; Epicentre) at 37° C. for 1 h. The products were resolved by anion-exchange HPLC on a 4.6×250-mm Partisil 10SAX/25 column (Whatman). The gradient consisted of water for 1 min, a linear gradient to 112 mM KH2PO4, pH 4.5, for 20 min, a linear gradient of 112-450 mM KH2PO4 for 15 min, a linear gradient of 450 mM to 1.5 M KH2PO4 for 15 min, and isocratic elution at 1.5 M of KH2PO4 for 9 min, all at a flow rate 1 ml/min.
We tested oligonucleotides capped with either of S-ARCAs for hydrolysis by recombinant hDcp2 to test whether mRNA capped with the various diastereomers of m2^7,2′-OGpppsG and m2^7,2′-OGppspG would differ in their sensitivity to cleavage by Dcp1/Dcp2. See generally Z. Wang et al., “The hDcp2 protein is a mammalian mRNA decapping enzyme,” Proc. Natl. Acad. Sci. U.S.A., vol. 99, pp. 12663-12668 (2002), and Z. Wang et al., “An mRNA Stability Complex Functions with Poly(A)-Binding Protein To Stabilize mRNA In Vitro”, Mol. Cell. Biol., vol. 19, pp. 4552-4560 (1999). Cap analogs used were initially unlabeled, so to follow the products of the digestion reaction we synthesized capped oligonucleotides in the presence of [α-^32P]GTP and a DNA template in which G was the first ribonucleotide specified after the promoter. The oligonucleotides capped with either of the S-ARCAs were subjected to Dcp2 digestion in vitro, after which the products were further digested with a cocktail of ribonucleases (RiboShredder from Epicenter). Any nucleotide on the 5′ side of a G residue acquired a ^32P-labeled 3′-phosphate group after ribonuclease digestion by nearest-neighbor transfer. Anion exchange chromatography was then used to resolve the labeled 3′-nucleoside monophosphates (3′-NMP*), at internal positions in the RNA, from labeled 5′-terminal products (FIG. 6). The latter comprise p3 Gp* derived from uncapped transcripts and m2^7,2′-OGp3 Gp* (when m2^7,2′-OGp3G was used), or pGp* resulting from capped RNA resistant or nonresistant to enzymatic cleavage, respectively. All cap analogs used were ARCAs, which ensured that they were incorporated into RNA exclusively in the correct orientation. This further guaranteed that only one 5′-terminal product (m2^7,2′-OGp3 Gp*) was observed upon ribonuclease treatment. Uncapped RNA is not a substrate for Dcp2, which explains why p3 Gp* product was observed after Dcp2 digestion.
See E. Grudzien et al., “Differential inhibition of mRNA degradation pathways by novel cap analogs,” J. Biol. Chem., vol. 281, pp. 1857-1867 (2006).

[1] = system: rabbit reticulocyte lysate; assay: Cell-free translation of capped Luc-A60 mRNA in the rabbit reticulocyte lysate system; type: biochemical; conditions: data not shown
Excerpt: Luc-A60 mRNA capped with m2^7,2′-OGppspG (D1) and m2^7,2′-OGppspG (D2) was translated 2.8- and 5.1-fold more efficiently than m^7Gp3G-capped mRNA, respectively (FIG. 8 and Table 2). For cell-free translation in the rabbit reticulocyte lysate system, Luc-A60 mRNAs capped with m2^7,2′-OGppspG (D1) and m2^7,2′-OGppspG (D2) were translated only 2.3-fold more efficiently than Luc-A60 mRNA capped with m^7Gp3G (data not shown).

T1 sequence (P63073 28-217): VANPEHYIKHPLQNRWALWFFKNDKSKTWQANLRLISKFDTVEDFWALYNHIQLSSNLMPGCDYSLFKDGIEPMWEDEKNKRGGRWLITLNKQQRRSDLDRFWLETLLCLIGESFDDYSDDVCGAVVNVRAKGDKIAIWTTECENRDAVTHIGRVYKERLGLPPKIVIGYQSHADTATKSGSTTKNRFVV

Compound | ΔG° (murine eIF4E (28-217)) [kcal/mol] | Cap - eIF4E KAS (murine eIF4E (28-217)) | KAS (murine eIF4E (28-217)) [µM⁻¹] | hydrolysis of capped oligonucleotide by hDcp2 (hDcp2) | Dcp2 susceptibility (hDcp2) [%] | affinity for eIF4E (KAS) relative to m2^7,2′-OGpppG (murine eIF4E (28-217)) [fold] | affinity for eIF4E (KAS) of D1 relative to D2 diastereomer (murine eIF4E (28-217)) [fold] | translational efficiency relative to m^7Gp3G-capped Luc-A60 mRNA [1] [fold]
CO[C@@H]1[C@H](O)[C@@H](COP(=O)(O)OP(=O)([O-])OP(=O)(O)OC[C@H]2O[C@@H](n3cnc4c(=O)[nH]c(N)nc43)[C@H](O)[C@@H]2O)O[C@H]1n1c[n+](C)c2c(O)nc(N)nc21 [m2^7,2′-OGpppG, reference compound] | -9.43 | 10.8 ± 0.3 | 10.8 ± 0.3 | completely digested | 100 |  |  | 
m2^7,2′-OGpppsG (D1) [Compound 4a] | -9.76 | 34.3 ± 1.3 | 19.2 ± 0.8 |  | 96 | 3 |  | 
m2^7,2′-OGpppsG (D2) [Compound 4b] | -9.62 | 12.9 ± 0.9 | 15.0 ± 0.6 |  | 98 |  |  | 
m2^7,2′-OGppspG (D1) [Compound 5a] | -10.23 ± 0.02 | 42.1 ± 1.6 | 43.1 ± 1.4 | much more susceptible to Dcp2 than its D2 counterpart | 71 |  | 2 | 2.3
m2^7,2′-OGppspG (D2) [Compound 5b] | -9.77 | 18.3 ± 3.4 | 19.3 ± 2.2 | stabilized RNA against hDcp2 hydrolysis; also recorded: resistant to hDcp2 hydrolysis | 6 |  |  | 2.3
m2^7,2′-OGpsppG (D1) [Compound 6a] | -10.12 | 19.3 ± 1.8 | 35.2 ± 1.1 |  | 84 | 3 | 3 | 
m2^7,2′-OGpsppG (D2) [Compound 6b] | -9.53 | 15.4 ± 0.5 | 12.9 ± 0.4 |  | 91 |  |  | 
